Like-named read-outs stand apart in the source and are kept apart here. Marks after values point to notes of the source that are not given here.
Legend:
[1] = tested on: S. cerevisiae Σ1278b ATCC 42800; assay: Cytotoxicity, alamarBlue (resazurin) assay on yeast cells; assay type: cell-based, Saccharomyces cerevisiae; details: ¼ and ½ MIC
Procedure: To determine the cytotoxicity of the tested gemini QAS on yeast cells, an experiment was performed using the alamarBlue colorimetric assay to determine the metabolic activity of cells, using the modified alamarBlue Cell Viability Assay Reagent method. Enzymes of the electron transport system reduce the blue resazurin solution to resorufin, which is fluorescent pink.
The yeast culture S. cerevisiae Σ1278b was incubated at 28 °C for 16 h with shaking (100 rpm), centrifuged (1000 rcf, 5 min) and the optical density was obtained, OD = 1.0, λ = 590 nm. On a 96-well titration plate we spotted 160 μl of YPG medium, 20 μl of yeast culture and the tested gemini QAS at final concentrations of ½ and ¼ MIC. The negative control was YPG medium with resazurin solution, and the positive control was resazurin solution with yeast culture. The plates were incubated at 28 °C for 12 h. Then, 20 μl of resazurin solution (alamarBlue) was added to the wells and the plate was incubated for 4 h in the dark. After incubation, the absorbance was measured at λ = 570 nm and λ = 600 nm and the color change of the wells from blue to pink was observed. The experiment was performed in 3 repetitions.

[2] = tested on: Rhodotorula mucilaginosa ATCC 4056; assay: MIC/MFC, microdilution method (modified CLSI M27); assay type: cell-based; details: 28 °C; for Minimum inhibitory concentration (MIC) / Minimum fungicidal concentration (MFC*): R. mucilaginosa ATCC 4056, 24 h; for Minimum inhibitory concentration (MIC): 90% growth inhibition, YPG; for Minimum fungicidal concentration (MFC*): no growth on solid YPG
Procedure: (§1) Minimum inhibitory concentration (MIC) and minimum fungicidal concentration (MFC) values were determined based on the modified CLSI M27 protocol. The study was performed using the microdilution method on sterile 96-well titration plates. The S. cerevisiae Σ1278b ATCC 42800, S. cerevisiae BY4741 ATCC 201388, C. albicans ATCC 10231, C. albicans 595/20 and R. mucilaginosa ATCC 4056 were incubated for 18 h at 28 °C (without shaking), then centrifuged (1000 rcf, 5 min), and the obtained pellet was suspended in fresh YPG medium and optical density (OD) = 0.25–0.3 was determined at a wavelength (λ) of 590 nm. Next, 10 μl of selected compounds at appropriate final concentrations (5–1280 μM) were spotted into the wells of the titration plate. Then, 80 μl of YPG medium and 10 μl of culture with a fixed OD were added. All tests were performed in triplicate. The plate was incubated at 28 °C for 24 h. The YPG medium was a negative control, while the prepared culture not treated with compounds was a positive control. […] The minimum inhibitory concentration was determined at 90% growth inhibition.
(§2) In order to determine the MFC of selected gemini surfactants, 10 μl of culture was transferred to solid YPG medium from the wells of the titration plate in which MIC was observed and from wells with the compound with higher concentrations. The spotted suspensions were incubated at 28 °C for 24 h. After incubation, inhibition of the growth of microorganisms was observed.

[3] = tested on: Candida albicans 595/20; assay: MIC/MFC, microdilution method (modified CLSI M27); assay type: cell-based; details: C. albicans 595/20 (clinical isolate), 28 °C
Procedure: as §1, §2

[4] = tested on: Saccharomyces cerevisiae BY4741 ATCC 201388; assay: MIC/MFC, microdilution method (modified CLSI M27); assay type: cell-based; details: for MIC: YPG, read-out: Minimum inhibitory concentration (MIC); for MIC / Minimum fungicidal concentration (MFC*): 28 °C; for Minimum fungicidal concentration (MFC*): no growth on solid YPG
Procedure: as §1, §2

[5] = tested on: Saccharomyces cerevisiae Σ1278b ATCC 42800; assay: MIC/MFC, microdilution method (modified CLSI M27); assay type: cell-based; details: S. cerevisiae Σ1278b, 28 °C; for MIC: read-out: Minimum inhibitory concentration (MIC); for MFC: read-out: Minimum fungicidal concentration (MFC*)
Procedure: as §1, §2

[6] = tested on: Candida albicans ATCC 10231; assay: MIC/MFC, microdilution method (modified CLSI M27); assay type: cell-based; details: 28 °C; for Minimum inhibitory concentration (MIC) / Minimum fungicidal concentration (MFC*): C. albicans ATCC 10231, 24 h; for Minimum inhibitory concentration (MIC): 90% growth inhibition; for Minimum fungicidal concentration (MFC*): no growth on solid YPG
Procedure: as §1, §2

[7] = tested on: C. albicans ATCC 10231; assay: Filamentation of Candida albicans (DIC microscopy); assay type: cell-based; details: 24 h incubation, ½ MIC, 37 °C
Procedure: The culture of C. albicans ATCC 10231 was incubated in YPG medium at 28 °C for 18 h. Then the culture was centrifuged (1000 rcf, 5 min), and the resulting pellet was suspended in fresh YPG medium to obtain a culture with OD = 0.6. […] The formation of filaments was observed using a differential interference contrast microscope (Olympus BX50 DIC Microscope) after 12 and 24 h of exposure to selected surfactants on C. albicans cells. The control was a culture not exposed to gemini QAS. The experiment was performed based on a modification of the protocol of Obłąk et al. ^46.

[8] = Krafft point (TK) determination; assay type: physicochemical
Procedure: Elemental analysis was conducted utilizing Vario EL cube (Elementar, Germany) calibrated on acetanilide. Mass spectra were gain by electrospray ionization mass spectroscopy (ESI–MS) (micrOTOF-Q instrument; Bruker Daltonics, Germany). The ESI–MS aparatus was operated in the positive ion mode (calibrated with the Tunemix™ mixture; Bruker Daltonics; Germany), followed by spectra analysis by the DataAnalysis 3.4 software (Bruker Daltonics, Germany)—resolution of at least 5 ppm. Proton NMR and ^13C NMR measurements were performed on a Bruker AMX-500 spectrometer, utilizing CDCl3 or DMSO-d6 as a solvent. Proton and ^13C chemical shifts (given in ppm) were calibrated to TMS (δ = 0 ppm) as an internal reference. Krafft points were measured according to procedures described in our previous studies Lamch et al.,[82]. Values of CMC for all surfactants were measured utilizing the conductometric method for the compounds’ solutions in milliQ water in the same manner as described in Kula et al.. For all spectra: ^1H NMR, ^13C NMR and ESI–MS as well as appropriate comments see Electronic Supplementary Material.

[9] = tested on: Salmonella Typhimurium TA98; assay: Mutagenicity, Ames test; details: for Number of colonies: ± SD
Procedure: The mutagenic potential of the tested gemini QAS was determined using the Ames test[83] using Salmonella Typhimurium TA98 and Salmonella Typhimurium TA100 with defects in histidine biosynthesis. The culture of S. Typhimurium TA98 and S. Typhimurium TA100 was incubated with shaking at 37 °C for 18 h, centrifuged (3000 rpm, 5 min) and OD = 1.5 was determined, at a wavelength of λ = 590 nm. The agar was dissolved and cooled to 42 °C. […] The media were incubated for 48 h at 37 °C. The positive control for the S. Typhimurium TA98 strain was acriflavin (100 μg/ml), and for the S. Typhimurium TA100 strain, sodium azide (15 μg/ml). The negative control was the culture without tested compound and with NaCl (0,9%). After incubation, the colonies were counted and the mutagenicity index (MR) was determined—the ratio of the number of revertants resulting from the mutagenic effect of the tested compound to the number of spontaneous revertants. Experiment was performed in three repetitions.

[10] = 90% growth inhibition, YPG, 24 h
[11] = S. cerevisiae BY4741, 90% growth inhibition, 24 h

Row | Structure (SMILES) | Cytotoxic potential towards mitochondrial metabolism of S. cerevisiae Σ1278b cells [1] | Minimum inhibitory concentration (MIC) [2] | Minimum fungicidal concentration (MFC*) [2] | Minimum inhibitory concentration (MIC) [3, 10] | Minimum fungicidal concentration (MFC*) ([3]; no growth on solid YPG, 24 h) | MIC [4, 11] [µM] | Minimum fungicidal concentration (MFC*) ([4]; S. cerevisiae BY4741, 24 h) [µM] | Minimum inhibitory concentration (MIC) ([6]; YPG) | Minimum fungicidal concentration (MFC*) [6] | Effect on production of filaments by C. albicans [7] | TK (Krafft point) [8] | Mutagenicity ratio (MR) ([9]; TA98, ¼ MIC) | Number of colonies ([9]; TA98, ¼ MIC) | Mutagenicity ratio (MR) ([9]; TA98, ½ MIC) | Number of colonies ([9]; TA98, ½ MIC) | also measured
1 | CCCCCCCCCCCC(=O)N(CCCN(CCC[N+](C)(C)C)C(=O)CCCCCCCCCCC)CCC[N+](C)(C)C [2xC12MeCO3G3, dimethyl{{3-[N-(3-{N-[3-(dimethylammonium)propyl]dodecylamido}propyl}dodecylamido}propyl}}ammonium dimethylcarbonate] | did not have cytotoxic potential | 320 320* µM | 320 320* µM | > 1280 > 1280* µM | > 1280 > 1280* µM | 160 | 1280 | > 1280 > 1280* µM | > 1280 > 1280* µM | almost completely inhibited the production of filaments | < 0 °C | 1.57 | 35.8 ± 2.63 | 2.59 | 59.0 ± 2.65 | MIC [5, 10]: 640 µM; MFC ([5]; no growth on solid YPG, 24 h): > 1280 µM
2 | CCCCCCCCCCCCCCCC(=O)N(CCCN(CCC[N+](C)(C)C)C(=O)CCCCCCCCCCCCCCC)CCC[N+](C)(C)C [2xC16BrG3] | did not have cytotoxic potential | > 640 640* µM | – | – | – | – | – | – | – | – | ~ 5 °C | 1.51 | 34.3 ± 5.69 | 1.85 | 42.0 ± 5.57 | MFC ([2]; Rhodotorula mucilaginosa, ATCC4056, 24 h, R. mucilaginosa ATCC 4056, no growth on solid YPG, read-out: Minimum fungicidal concentration (MFC*)): 640 µM; MIC ([3]; Candida albicans, 595/20, 24 h, 90% growth inhibition, YPG, read-out: Minimum inhibitory concentration (MIC)): > 1280 µM; MFC ([3]; Candida albicans, no growth on solid YPG, 24 h, read-out: Minimum fungicidal concentration (MFC*)): > 1280 µM; MIC ([4]; Saccharomyces cerevisiae, ATCC201388, 24 h, S. cerevisiae BY4741, 90% growth inhibition): 320 µM; MFC ([4]; Saccharomyces cerevisiae, ATCC201388, 24 h, read-out: Minimum fungicidal concentration (MFC*), S. cerevisiae BY4741, no growth on solid YPG, 28 °C): > 1280 µM; MIC ([5]; Saccharomyces cerevisiae, ATCC42800, 24 h, 90% growth inhibition, YPG): > 1280 µM; MFC ([5]; Saccharomyces cerevisiae, ATCC42800, 24 h, no growth on solid YPG): > 1280 µM; MIC ([6]; Candida albicans, ATCC10231, 24 h, C. albicans ATCC 10231, 90% growth inhibition, YPG, read-out: Minimum inhibitory concentration (MIC)): > 1280 µM; MFC ([6]; Candida albicans, ATCC10231, 24 h, C. albicans ATCC 10231, no growth on solid YPG, read-out: Minimum fungicidal concentration (MFC*)): > 1280 µM; Effect on production of filaments by C. albicans ([7]; listed as dibromides with 16-carbon alkyl chains): largely prevented the formation of filaments
3 | CCCCCCCCCCCCCCCC(=O)N(CCCN(CCC[N+](C)(C)C)C(=O)CCCCCCCCCCCCCCC)CCC[N+](C)(C)C [2xC16MeCO3G3, dimethyl{{3-[N-(3-{N-[3-(dimethylammonium)propyl]hexadecylamido}propyl}hexadecylamido}propyl}}ammonium dimethylcarbonate] | did not have cytotoxic potential | 640 640* µM | 640 640* µM | > 1280 > 1280* µM | > 1280 > 1280* µM | 640 | 1280 | > 1280 > 1280* µM | > 1280 > 1280* µM | significantly reduced their number | ~ 5 °C | 1.55 | 35.3 ± 5.03 | 1.85 | 42.0 ± 2.16 | Minimum inhibitory concentration (MIC) [5, 10]: > 1280 > 1280* µM; Minimum fungicidal concentration (MFC*) ([5]; no growth on solid YPG, 24 h): > 1280 > 1280* µM
